Test results as given in patent US20140045806A1 (priority 2012, published 2014).
Marks after values point to notes of the source that are not given here.

Test system: postmenopausal women
Assay: ERC-210 phase III trial, MENQOL questionnaire (sexual domain and summary score)
Type: in vivo
Settings: for MENQOL sexual domain, average percentage of change from baseline, percentages of the three DHEA doses combined: 12 weeks; for MENQOL Avoiding intimacy, average % change from baseline to Week 12 in severity score over placebo / MENQOL Sexual desire, average % change from baseline to Week 12 in severity score over placebo / MENQOL Vaginal dryness at sexual activity, average % change from baseline to Week 12 in severity score over placebo: average of the 3 DHEA doses
Source text: The example below is intended only to illustrate a particular embodiment of the present invention and is not meant to limit the scope of the invention in any manner. This study (ERC-210) is a phase III, prospective, multicentre, randomized, placebo-controlled, and double-blind trial. […] The DHEA ovules or suppositories (Vaginorm™) containing prasterone in a lipophilic base were manufactured by Recipharm, Karlskoga, Sweden. The study was divided into two phases, namely screening followed by a treatment period of 12 weeks. The protocol was approved by the Institutional Review Board of the Centre Hospitalier de I'Université Laval (Quebec City, Canada), McGill University (Montreal, Canada), Ethica (Montreal, Canada), Eastern Virginia Medical School (Norfolk, Va., USA) and the Western Institutional Review Board (Los Angeles, USA).
The inclusion and exclusion criteria were as described in (Labrie, Archer et al. 2009b). A written informed consent was obtained from all subjects prior to the performance of any study-related procedure. […] A partial gynecological examination was performed to evaluate the aspect of the mucosa and tolerance to the medication on day 1 and at all visits. The standard laboratory tests, namely hematology (including complete blood count and coagulation), blood chemistry and urinalysis were performed at screening, day 1 and at all visits. Summary tabulations were prepared displaying the number of observations, mean or geometric mean as appropriate, SD; SEM, 95% two-sided CI; median, minimum, and maximum for continuous variables; and the number and percentage per category for categorical data. Statistical analyses were performed at the two-sided significance level of 0.05 unless otherwise stated. […] The endpoints for analysis consisted of the following: desire/interest, arousal and orgasm were self-rated by the women at screening, at day 1, and at week 4, 8 and 12 using the ASF and MENQOL questionnaires. Baseline was defined as the value on day 1, obtained before first use of the study treatment, and change from baseline to week 12 was calculated for each participant for each domain endpoint. The analysis comparing each dose of DHEA to placebo was performed by analysis of covariance, with the baseline value used as the covariate. Missing values were replaced by the last observation made.
The three questions covered by the sexual domain of the MENQOL questionnaire are change in sexual desire, intimacy avoidance and vaginal dryness during sexual activity. In our previous publication (Labrie, Archer et al. 2009a), only women having a score value at baseline and week 12 were used in the calculations while the present evaluation carries forward the last value obtained after baseline when data at week 12 are missing. […] Since the number of women is as low as 12 in some groups for some parameters after the distribution is made between women with and without MS, the calculations have also been performed with the combination of the three prasterone doses, although the number of women remains low in the corresponding placebo group.

[1] = 0.25% DHEA intravaginal daily 12 weeks, MS pain at sexual activity at baseline
[2] = 0.5% DHEA intravaginal daily 12 weeks, MS pain at sexual activity at baseline
[3] = 0.5% DHEA intravaginal daily 12 weeks, all subjects (ITT)
[4] = 1.0% DHEA intravaginal daily 12 weeks, no MS pain at sexual activity at baseline
[5] = Pool 3 Doses DHEA intravaginal daily 12 weeks, MS pain at sexual activity at baseline
[6] = Pool 3 Doses DHEA intravaginal daily 12 weeks, MS pain at sexual activity at baseline, listed as prasterone
[7] = Pool 3 Doses DHEA intravaginal daily 12 weeks, all subjects (ITT)
[8] = Pool 3 Doses DHEA intravaginal daily 12 weeks, all subjects (ITT), listed as prasterone
[9] = Pool 3 Doses DHEA intravaginal daily 12 weeks, no MS pain at sexual activity at baseline
[10] = Pool 3 Doses DHEA intravaginal daily 12 weeks, no MS pain at sexual activity at baseline, listed as prasterone

C[C@]12CC[C@H](O)CC1=CC[C@@H]1[C@@H]2CC[C@]2(C)C(=O)CC[C@@H]12 [DHEA, (3β)-3-Hydroxyandrost-5-en-17-one]
MENQOL Avoiding intimacy (Q 29) severity score, average % change from baseline to Week 12 (decreased from baseline) [1]: 41%
MENQOL SUMMARY SCORE of the four domains, average % change from baseline to Week 12 (decreased from baseline) [1]: 24%**
MENQOL Sexual desire (Q 27) severity score, average % change from baseline to Week 12 (decreased from baseline) [1]: 48%
MENQOL Vaginal dryness during intercourse (Q28) severity score, average % change from baseline to Week 12 (decreased from baseline) [1]: 45%
MENQOL SUMMARY SCORE of the four domains, average % change from baseline to Week 12 (decreased from baseline) (0.25% DHEA intravaginal daily 12 weeks, all subjects (ITT)): 24%**
MENQOL SUMMARY SCORE of the four domains, average % change from baseline to Week 12 (decreased from baseline) (0.25% DHEA intravaginal daily 12 weeks, no MS pain at sexual activity at baseline): 25%*
MENQOL Avoiding intimacy (Q 29) severity score, average % change from baseline to Week 12 (decreased from baseline) [2]: 43%
MENQOL SUMMARY SCORE of the four domains, average % change from baseline to Week 12 (decreased from baseline) [2]: 19%
MENQOL Sexual desire (Q 27) severity score, average % change from baseline to Week 12 (decreased from baseline) [2]: 36%
MENQOL SUMMARY SCORE of the four domains, average % change from baseline to Week 12 (decreased from baseline) [3]: 18%
MENQOL Sexual desire (Q 27) severity score, average % change from baseline to Week 12 (decreased from baseline) [3]: 31%
MENQOL SUMMARY SCORE of the four domains, average % change from baseline to Week 12 (decreased from baseline) (0.5% DHEA intravaginal daily 12 weeks, no MS pain at sexual activity at baseline): 12%
MENQOL SUMMARY SCORE of the four domains, average % change from baseline to Week 12 (decreased from baseline) (1.0% DHEA intravaginal daily 12 weeks, MS pain at sexual activity at baseline): 22%*
MENQOL SUMMARY SCORE of the four domains, average % change from baseline to Week 12 (decreased from baseline) (1.0% DHEA intravaginal daily 12 weeks, all subjects (ITT)): 20%*
MENQOL Avoiding intimacy (Q 29) severity score, average % change from baseline to Week 12 (decreased from baseline) [4]: 27%
MENQOL SUMMARY SCORE of the four domains, average % change from baseline to Week 12 (decreased from baseline) [4]: 14%
MENQOL Sexual desire (Q 27) severity score, average % change from baseline to Week 12 (decreased from baseline) [4]: 35%
Changes over placebo, sum of the three questions of the MENQOL sexual function domain (MS pain group): 62.8%
Specific (above placebo) effect in MENQOL, global increase over placebo (MS pain group): 0.78 fold
MENQOL sexual domain, average percentage of change from baseline, percentages of the three DHEA doses combined (MS pain group): 49.0%
MENQOL Avoiding intimacy (Q 29) severity score, average % change from baseline to Week 12 (decreased from baseline) [5]: 46.4%*
MENQOL SUMMARY SCORE of the four domains, average % change from baseline to Week 12 (decreased from baseline) [5]: 21.4%*
MENQOL Sexual desire (Q 27) severity score, average % change from baseline to Week 12 (decreased from baseline) [5]: 45.0%
MENQOL Sexual domain severity score, average % change from baseline to Week 12 (decreased from baseline) [5]: 48.4%**
MENQOL Vaginal dryness during intercourse (Q28) severity score, average % change from baseline to Week 12 (decreased from baseline) [5]: 52.4%**
MENQOL Avoiding intimacy (Q 29) severity score, average % change from baseline to Week 12 (decreased from baseline) [6]: 46.4%
MENQOL SUMMARY SCORE of the four domains, average % change from baseline to Week 12 (decreased from baseline) [6]: 21.4%
MENQOL Sexual desire (Q 27) severity score, average % change from baseline to Week 12 (decreased from baseline) [6]: 45%
MENQOL Sexual domain severity score, average % change from baseline to Week 12 (decreased from baseline) [6]: 48.4%
MENQOL Vaginal dryness during intercourse (Q28) severity score, average % change from baseline to Week 12 (decreased from baseline) [6]: 52.4%
MENQOL Avoiding intimacy (Q 29) severity score, average % change from baseline to Week 12 (decreased from baseline) [7]: 44.8%**
MENQOL SUMMARY SCORE of the four domains, average % change from baseline to Week 12 (decreased from baseline) [7]: 20.8%**
MENQOL Sexual desire (Q 27) severity score, average % change from baseline to Week 12 (decreased from baseline) [7]: 44.0%**
MENQOL Sexual domain severity score, average % change from baseline to Week 12 (decreased from baseline) [7]: 46.7%**
MENQOL Vaginal dryness during intercourse (Q28) severity score, average % change from baseline to Week 12 (decreased from baseline) [7]: 49.9%**
MENQOL Avoiding intimacy (Q 29) severity score, average % change from baseline to Week 12 (decreased from baseline) [8]: 44.8%
MENQOL SUMMARY SCORE of the four domains, average % change from baseline to Week 12 (decreased from baseline) [8]: 20.8%
MENQOL Sexual desire (Q 27) severity score, average % change from baseline to Week 12 (decreased from baseline) [8]: 44%
MENQOL Sexual domain severity score, average % change from baseline to Week 12 (decreased from baseline) [8]: 46.7%
MENQOL Vaginal dryness during intercourse (Q28) severity score, average % change from baseline to Week 12 (decreased from baseline) [8]: 49.9%
MENQOL Avoiding intimacy (Q 29) severity score, average % change from baseline to Week 12 (decreased from baseline) [9]: 36.6%*
MENQOL SUMMARY SCORE of the four domains, average % change from baseline to Week 12 (decreased from baseline) [9]: 18.0%*
MENQOL Sexual desire (Q 27) severity score, average % change from baseline to Week 12 (decreased from baseline) [9]: 40.2%**
MENQOL Sexual domain severity score, average % change from baseline to Week 12 (decreased from baseline) [9]: 39.2%**
MENQOL Vaginal dryness during intercourse (Q28) severity score, average % change from baseline to Week 12 (decreased from baseline) [9]: 38.2%**
MENQOL Avoiding intimacy (Q 29) severity score, average % change from baseline to Week 12 (decreased from baseline) [10]: 36.6%
MENQOL SUMMARY SCORE of the four domains, average % change from baseline to Week 12 (decreased from baseline) [10]: 18%
MENQOL Sexual desire (Q 27) severity score, average % change from baseline to Week 12 (decreased from baseline) [10]: 40.2%
MENQOL Sexual domain severity score, average % change from baseline to Week 12 (decreased from baseline) [10]: 39.2%
MENQOL Vaginal dryness during intercourse (Q28) severity score, average % change from baseline to Week 12 (decreased from baseline) [10]: 38.2%
MENQOL Avoiding intimacy, average % change from baseline to Week 12 in severity score over placebo (MS PAIN at baseline): 21.4%*
MENQOL Sexual desire, average % change from baseline to Week 12 in severity score over placebo (MS PAIN at baseline): 18.0%
MENQOL Vaginal dryness at sexual activity, average % change from baseline to Week 12 in severity score over placebo (MS PAIN at baseline): 23.4%**
MENQOL Avoiding intimacy, average % change from baseline to Week 12 in severity score over placebo (NO MS PAIN at baseline): 27.4%*
MENQOL Sexual desire, average % change from baseline to Week 12 in severity score over placebo (NO MS PAIN at baseline): 34.1%**
MENQOL Vaginal dryness at sexual activity, average % change from baseline to Week 12 in severity score over placebo (NO MS PAIN at baseline): 38.2%**
MENQOL Avoiding intimacy, average % change from baseline to Week 12 in severity score over placebo (TOTAL (all women)): 22.8%**
MENQOL Sexual desire, average % change from baseline to Week 12 in severity score over placebo (TOTAL (all women)): 22.0%**
MENQOL Vaginal dryness at sexual activity, average % change from baseline to Week 12 in severity score over placebo (TOTAL (all women)): 26.9%**
Changes over placebo, sum of the three questions of the MENQOL sexual function domain (no MS pain group): 99.7%
Specific (above placebo) effect in MENQOL, global increase over placebo (non MS pain group): 5.5 fold
MENQOL sexual domain, average percentage of change from baseline, percentages of the three DHEA doses combined (non MS pain group): 33.3%
Higher specificity of correction of sexual dysfunction (over placebo), MENQOL (women with no MS pain versus MS pain at baseline): 6.8 fold
